Experimental data: ChEMBL document CHEMBL4038289, “Y-shaped bis-arylethenesulfonic acid esters: Potential potent and membrane permeable protein tyrosine phosphatase 1B inhibitors” (Bioorg Med Chem Lett, 2017)

Key:
[1] = target: T1, Tyrosine-protein phosphatase non-receptor type 1 (Homo sapiens, UniProt P18031); assay: Inhibition of recombinant PTP1B (unknown origin) expressed in Escherichia coli using pNPP as substrate measured after 30 mins
T1 sequence (P18031 whole entry): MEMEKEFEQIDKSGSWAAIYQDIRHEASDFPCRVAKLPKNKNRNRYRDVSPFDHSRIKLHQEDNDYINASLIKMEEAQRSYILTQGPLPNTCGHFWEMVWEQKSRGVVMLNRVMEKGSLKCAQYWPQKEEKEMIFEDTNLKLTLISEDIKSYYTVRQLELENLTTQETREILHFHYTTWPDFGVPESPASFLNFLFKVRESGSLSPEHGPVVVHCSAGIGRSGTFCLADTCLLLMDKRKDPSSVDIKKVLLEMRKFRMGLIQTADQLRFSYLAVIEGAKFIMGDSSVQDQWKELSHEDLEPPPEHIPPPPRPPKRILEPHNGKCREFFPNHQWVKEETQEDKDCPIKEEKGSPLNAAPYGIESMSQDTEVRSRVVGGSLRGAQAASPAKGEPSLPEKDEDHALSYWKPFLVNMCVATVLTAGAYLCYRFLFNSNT

[2] = target: T2, Tyrosine-protein phosphatase non-receptor type 2 (Homo sapiens, UniProt P17706); assay: Inhibition of recombinant TCPTP (unknown origin) using pNPP as substrate measured after 30 mins
T2 sequence (P17706 whole entry): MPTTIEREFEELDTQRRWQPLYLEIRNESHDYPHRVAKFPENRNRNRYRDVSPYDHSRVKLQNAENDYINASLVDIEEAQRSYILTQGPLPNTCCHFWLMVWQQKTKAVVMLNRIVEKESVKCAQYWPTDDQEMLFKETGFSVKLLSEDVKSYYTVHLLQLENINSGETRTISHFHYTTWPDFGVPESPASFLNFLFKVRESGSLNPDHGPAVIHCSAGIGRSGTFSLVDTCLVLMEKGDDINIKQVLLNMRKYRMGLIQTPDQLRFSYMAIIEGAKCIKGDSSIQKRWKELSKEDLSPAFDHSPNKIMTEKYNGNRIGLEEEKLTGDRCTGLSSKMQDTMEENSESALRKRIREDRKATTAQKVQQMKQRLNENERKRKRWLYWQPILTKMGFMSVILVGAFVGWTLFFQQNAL

[3] = target: T3, Tyrosine-protein phosphatase non-receptor type 11 (Homo sapiens, UniProt Q06124); assay: Inhibition of recombinant SHP2 (unknown origin) using pNPP as substrate measured after 30 mins
T3 sequence (Q06124 whole entry): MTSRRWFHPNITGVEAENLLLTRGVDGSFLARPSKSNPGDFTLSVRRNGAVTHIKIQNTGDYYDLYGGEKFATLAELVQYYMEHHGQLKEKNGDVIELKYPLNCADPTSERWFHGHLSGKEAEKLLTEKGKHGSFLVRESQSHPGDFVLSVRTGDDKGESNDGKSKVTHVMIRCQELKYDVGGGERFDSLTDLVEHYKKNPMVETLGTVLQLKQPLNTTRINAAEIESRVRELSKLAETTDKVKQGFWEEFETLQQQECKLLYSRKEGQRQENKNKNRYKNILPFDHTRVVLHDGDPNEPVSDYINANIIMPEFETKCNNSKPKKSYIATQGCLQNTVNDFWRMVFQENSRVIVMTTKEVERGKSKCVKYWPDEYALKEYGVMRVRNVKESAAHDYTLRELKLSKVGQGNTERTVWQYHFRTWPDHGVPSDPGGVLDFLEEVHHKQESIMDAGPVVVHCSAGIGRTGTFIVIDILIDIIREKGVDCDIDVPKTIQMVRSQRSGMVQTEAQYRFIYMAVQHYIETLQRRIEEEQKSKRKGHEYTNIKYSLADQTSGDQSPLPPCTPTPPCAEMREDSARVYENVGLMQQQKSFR

[4] = Apparent permeability of compound at 20 uM at pH 7.4 after 16 hrs by PAMPA; assay type: physicochemical
[5] = organism: Homo sapiens; assay: Selectivity ratio of IC50 for recombinant TCPTP (unknown origin) to IC50 for recombinant PTP1B (unknown origin) expressed in Escherichia coli
[6] = organism: Homo sapiens; assay: Selectivity ratio of IC50 for recombinant SHP2 (unknown origin) to IC50 for recombinant PTP1B (unknown origin) expressed in Escherichia coli

Row | SMILES | IC50 [1] [nM] | further results
1 | CCOS(=O)(=O)/C=C/c1ccc(OCCCCOc2ccc(/C=C/S(=O)(=O)OCC)cc2)cc1 | > 100000 | –
2 | CCOS(=O)(=O)/C=C/c1ccc(OCc2ccc(COc3ccc(/C=C/S(=O)(=O)OCC)cc3)c(C(=O)Nc3ccc(Oc4ccc(C(F)(F)F)cc4)cc3)c2)cc1 | 820 | –
3 | CCOS(=O)(=O)/C=C/c1ccc(OCc2ccc(COc3ccc(/C=C/S(=O)(=O)OCC)cc3)c(C(=O)Nc3ccc(Oc4ccc(Cl)cc4)cc3)c2)cc1 | 400 | IC50 [2]: 2970 nM; IC50 [3]: 940 nM; Papp at 16 h, 20 µM [4]: 9.1 ×10⁻⁶ cm/s; Ratio IC50 [5]: 5 to 9
4 | CCOS(=O)(=O)/C=C/c1ccc(OCc2ccc(COc3ccc(/C=C/S(=O)(=O)OCC)cc3)c(C(=O)Nc3ccc(Oc4ccc(F)cc4)cc3)c2)cc1 | 1300 | –
5 | CCOS(=O)(=O)/C=C/c1ccc(OCc2ccc(COc3ccc(/C=C/S(=O)(=O)OCC)cc3)c(C(=O)Nc3ccc(Oc4ccc5ccccc5c4)cc3)c2)cc1 | 790 | –
6 | CCOS(=O)(=O)/C=C/c1ccc(OCc2ccc(COc3ccc(/C=C/S(=O)(=O)OCC)cc3)cc2)cc1 | 1200 | IC50 [2]: 3390 nM; IC50 [3]: 4700 nM
7 | CCOS(=O)(=O)/C=C/c1ccc(OCc2ccc(COc3ccc(/C=C/S(=O)(=O)OCC)cc3)c(C(=O)O)c2)cc1 | 1300 | –
8 | CC(C)NCC(O)COc1cccc2ccccc12 (stereo not given) [PROPRANOLOL] | – | Papp at 16 h, 20 µM [4]: 18.7 ×10⁻⁶ cm/s
9 | CCOS(=O)(=O)/C=C/c1ccc(OCc2ccc(COc3ccc(/C=C/S(=O)(=O)OCC)cc3)c(C(=O)Nc3ccc(C(C)C)cc3)c2)cc1 | 1300 | –
10 | CCOS(=O)(=O)/C=C/c1ccc(OCOc2ccc(/C=C/S(=O)(=O)OCC)cc2)cc1 | 8700 | –
11 | CCOS(=O)(=O)/C=C/c1ccc(OC2CCC(Oc3ccc(/C=C/S(=O)(=O)OCC)cc3)CC2)cc1 (stereo not given) | 29200 | –
12 | CCOS(=O)(=O)/C=C/c1ccc(OCc2cccc(COc3ccc(/C=C/S(=O)(=O)OCC)cc3)c2)cc1 | 18400 | –
13 | CCOS(=O)(=O)/C=C/c1ccc(OCc2ccc(COc3ccc(/C=C/S(=O)(=O)OCC)cc3)c(C(=O)Nc3ccc(Oc4ccc(CC)cc4)cc3)c2)cc1 | 190 | IC50 [2]: 1320 nM; IC50 [3]: 1100 nM; Papp at 16 h, 20 µM [4]: 8.5 ×10⁻⁶ cm/s; Ratio IC50 [5]: 5 to 9; Ratio IC50 [6]: 5 to 6
14 | CCOS(=O)(=O)/C=C/c1ccc(OCc2ccc(COc3ccc(/C=C/S(=O)(=O)OCC)cc3)c(C(=O)Nc3ccc(Oc4ccc(Br)cc4Cl)cc3)c2)cc1 | 160 | IC50 [2]: 1430 nM; IC50 [3]: 1050 nM; Papp at 16 h, 20 µM [4]: 12.6 ×10⁻⁶ cm/s; Ratio IC50 [5]: 5 to 9; Ratio IC50 [6]: 5 to 6

Now from value to compound, other results behind:

Row | IC50 [1] [nM] | SMILES | further results
15 | 37300 | CCOS(=O)(=O)/C=C/c1ccc(OCCCOc2ccc(/C=C/S(=O)(=O)OCC)cc2)cc1 | –
16 | 1100 | CCOS(=O)(=O)/C=C/c1ccc(OCc2ccc(COc3ccc(/C=C/S(=O)(=O)OCC)cc3)c(C(=O)Nc3ccc(F)cc3)c2)cc1 | –
17 | 870 | CCOS(=O)(=O)/C=C/c1ccc(OCc2ccc(COc3ccc(/C=C/S(=O)(=O)OCC)cc3)c(C(=O)Nc3ccc(Oc4ccccc4C(F)(F)F)cc3)c2)cc1 | –
18 | 140 | CCOS(=O)(=O)/C=C/c1ccc(OCc2ccc(COc3ccc(/C=C/S(=O)(=O)OCC)cc3)c(C(=O)Nc3ccc(Oc4ccc(-c5ccccc5)cc4)cc3)c2)cc1 | IC50 [2]: 1290 nM; IC50 [3]: 920 nM; Papp at 16 h, 20 µM [4]: 9.7 ×10⁻⁶ cm/s; Ratio IC50 [5]: 5 to 9; Ratio IC50 [6]: 5 to 6
19 | 910 | CCOS(=O)(=O)/C=C/c1ccc(OCc2ccc(COc3ccc(/C=C/S(=O)(=O)OCC)cc3)c(C(=O)Nc3ccc(Oc4ccc(C(C)(C)C)cc4)cc3)c2)cc1 | –
20 | 860 | CCOS(=O)(=O)/C=C/c1ccc(OCc2ccc(COc3ccc(/C=C/S(=O)(=O)OCC)cc3)c(C(=O)Nc3ccc(Oc4ccccc4)cc3)c2)cc1 | –
21 | 11800 | CCOS(=O)(=O)/C=C/c1ccc(Oc2ccc(/C=C/S(=O)(=O)OCC)cc2)cc1 | –
22 | 1400 | CCOS(=O)(=O)/C=C/c1ccc(OCc2ccc(COc3ccc(/C=C/S(=O)(=O)OCC)cc3)c(C(=O)Nc3ccccc3)c2)cc1 | –
23 | 750 | CCOS(=O)(=O)/C=C/c1ccc(OCc2ccc(COc3ccc(/C=C/S(=O)(=O)OCC)cc3)c(C(=O)Nc3ccc(Oc4ccc(C(C)C)cc4)cc3)c2)cc1 | –
24 | 2600 | CCOS(=O)(=O)/C=C/c1ccc(OCc2ccc(COc3ccc(/C=C/S(=O)(=O)OCC)cc3)c(C(=O)Nc3ccc(OC)cc3)c2)cc1 | –
25 | 350 | CCOS(=O)(=O)/C=C/c1ccc(OCc2ccc(COc3ccc(/C=C/S(=O)(=O)OCC)cc3)c(C(=O)Nc3ccc(Oc4cccc(C(F)(F)F)c4)cc3)c2)cc1 | IC50 [2]: 1620 nM; IC50 [3]: 1700 nM; Papp at 16 h, 20 µM [4]: 6.9 ×10⁻⁶ cm/s; Ratio IC50 [5]: 5 to 9; Ratio IC50 [6]: 5 to 6
26 | 850 | CCOS(=O)(=O)/C=C/c1ccc(OCc2ccc(COc3ccc(/C=C/S(=O)(=O)OCC)cc3)c(C(=O)Nc3ccc(Oc4ccccc4F)cc3)c2)cc1 | –
27 | 3400 | CCOS(=O)(=O)/C=C/c1ccc(OCc2ccc(COc3ccc(/C=C/S(=O)(=O)OCC)cc3)c(C(=O)OC)c2)cc1 | –
28 | 3000 | CCOS(=O)(=O)/C=C/c1ccc(OCCOc2ccc(/C=C/S(=O)(=O)OCC)cc2)cc1 | –
29 | 1100 | CCOS(=O)(=O)/C=C/c1ccc(OCc2ccc(COc3ccc(/C=C/S(=O)(=O)OCC)cc3)c(C(=O)Nc3ccc(Oc4cccc(-c5ccccc5)c4)cc3)c2)cc1 | –
